Test results taken from publication PMC9025810, “Interaction of Antifungal Drugs with CYP3A- and OATP1B-Mediated Venetoclax Elimination” (Pharmaceutics, 2022).
Like-named read-outs stand apart in the source and are kept apart here.

How the values were obtained:
[1] = cited from earlier work
[2] = Venetoclax plasma pharmacokinetics in wild-type, CYP3A(−/−) and OATP1B2(−/−) mice; assay type: in vivo; details: for AUC(0-t) / Cmax: mouse, plasma, po, mean (SE)
Experimental: In vivo experiments were performed with female and male mice from inbred wild-type strains (FVB, DBA) or with age- and sex-matched genetically-engineered mice with a deficiency of the Cyp3a locus (8-genes; […] The studies were conducted in accordance with the NIH's Guide for the Care and Use of Laboratory Animals and as approved by the University Laboratory Animal Resources Animal Care and Use Committee at Ohio State University (2015A00000101-R2; last approved 20 September 2021) and. Mice were housed in a temperature- and light-controlled environment with free access to water and a standard diet, excluding a 3-h fast before venetoclax administration. For in vivo studies, venetoclax was prepared for oral administration by dissolving the powder in DMSO (5%) and then adding PEG300 (50%), Tween-80 (5%), and water (40%) stepwise to create a suspension with a final concentration of 2 mg/mL. […] Based on our previous experience, all experiments were prospectively designed to have group sizes of five; however, pharmacokinetic data from two CYP3A(-/-) mice were excluded due to tolerability concerns, resulting in a final group size of three (Supplementary Table S1). Pharmacokinetic studies were performed as described previously. In brief, approximately 30 μL of whole blood was collected from each mouse at six time points between 5 min and 8 h after venetoclax administration; in most cases, samples were collected at 5 min, 15 min, 30 min, 1 h, 3 h, and 8 h. The first three samples were collected from a submandibular vein using a sterile 5-mm Goldenrod Animal Lancet and a heparinized capillary tube. The fourth and fifth samples were collected from the retro-orbital venous plexus using capillary tubes after anesthetizing the mice using 2% isoflurane. The terminal sample was collected into a 1.3-mL tube containing heparin by cardiac puncture using a syringe and needle. Whole blood samples were centrifuged at 13,000× g for 5 min. The plasma supernatant was then collected, immediately placed on dry ice, and stored at -80 °C until analysis. Venetoclax was quantified using a validated UHPLC-MS/MS analytical method; this method utilizes 5-μL sample volumes and has a lower limit of quantification of 5 ng/mL. Non-compartmental analysis was performed to determine the pharmacokinetic parameters of venetoclax using Phoenix WinNonlin version 8.0 (Certara, Princeton, NJ, USA). Peak plasma concentration (Cmax) was determined by visual inspection of the data from the log concentration versus time curves. The linear trapezoidal rule was used to obtain the area under the plasma concentration-time curve from time zero to the time of the last measurable concentration (AUC0-last).

[3] = biological target: T1, OATP1B1 (Homo sapiens, UniProt Q9Y6L6); experiment: Radioactive uptake and membrane/intracellular fractionation in cells overexpressing OATP1B1 or vector; assay type: cell-based; set-up: expressed in transfected cells
T1 sequence (Q9Y6L6 1-691): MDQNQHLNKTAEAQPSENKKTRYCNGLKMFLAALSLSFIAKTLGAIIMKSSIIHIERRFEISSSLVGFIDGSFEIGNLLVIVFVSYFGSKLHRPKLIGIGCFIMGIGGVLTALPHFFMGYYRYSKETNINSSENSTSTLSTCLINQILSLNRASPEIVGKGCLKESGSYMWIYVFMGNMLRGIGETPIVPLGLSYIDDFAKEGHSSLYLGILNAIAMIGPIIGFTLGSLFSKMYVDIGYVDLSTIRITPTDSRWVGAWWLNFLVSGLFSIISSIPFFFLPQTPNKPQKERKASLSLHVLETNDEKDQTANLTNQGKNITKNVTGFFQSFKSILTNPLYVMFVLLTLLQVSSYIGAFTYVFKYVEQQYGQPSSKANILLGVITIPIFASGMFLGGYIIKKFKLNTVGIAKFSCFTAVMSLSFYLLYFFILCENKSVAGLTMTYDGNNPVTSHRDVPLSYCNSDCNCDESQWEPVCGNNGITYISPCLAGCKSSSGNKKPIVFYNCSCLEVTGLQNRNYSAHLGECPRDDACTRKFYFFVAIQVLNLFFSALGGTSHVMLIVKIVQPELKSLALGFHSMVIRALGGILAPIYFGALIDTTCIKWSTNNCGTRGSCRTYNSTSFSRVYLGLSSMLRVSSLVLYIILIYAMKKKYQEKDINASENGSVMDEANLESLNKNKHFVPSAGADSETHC
Experimental: For experiments seeking to directly determine if venetoclax is an OATP1B1 substrate, cells overexpressing OATP1B1 or VC were seeded in six-well plates in phenol red-free DMEM containing 10% FBS and doxycycline (1 µg/mL) for 24 h. […] Cells were then immediately lysed with 1 mL of 1 N NaOH for 4 h on an orbital shaker at room temperature to measure total radioactivity. Alternatively, cells were trypsinized with 200 µL of TrypLE (Thermo Fisher Scientific, Waltham, MA, USA) for 3–5 min, rinsed with 800 µL of ice-cold washing buffer, and ProteoExtract Native Membrane Protein Extraction Kits (EMD Millipore, Burlington, MA, USA) were used to separate membrane and intracellular fractions. Dissociated cells were then transferred to 1.5-mL Eppendorf tubes. For measurement of total radioactivity, cells were neutralized with 500 µL of 2 M HCl after 4 h. For measurement of total radioactivity in the membrane or intracellular fraction, cells were isolated following the manufacturer’s protocol, as we have reported previously; this procedure is based on a differential extraction procedure under non-denaturing conditions.

SMILES: CC1(C)CCC(CN2CCN(c3ccc(C(=O)NS(=O)(=O)c4ccc(NCC5CCOCC5)c([N+](=O)[O-])c4)c(Oc4cnc5[nH]ccc5c4)c3)CC2)=C(c2ccc(Cl)cc2)C1 [Venetoclax]
- Reduction of clearance in vivo ([1]; mice with a deficiency of all OATP1A and OATP1B type transporters): 60%
- DDI between venetoclax and ketoconazole (increase in venetoclax exposure) ([1]; mice): ~ 3 fold
- Venetoclax AUC Fold Increase ([2]; CYP3A(−/−) + ketoconazole 50 mg/kg versus vehicle-treated CYP3A(−/−)): 1.6 (versus vehicle-treated wild-type CYP3A(−/−)) fold
- Venetoclax AUC Fold Increase ([2]; CYP3A(−/−) + ketoconazole 50 mg/kg versus vehicle-treated CYP3A(−/−), listed as venetoclax): 1.6 fold
- Venetoclax AUC Fold Increase ([2]; female OATP1B2(−/−) versus wild-type DBA): 2.0 (versus wild-type DBA) fold
- Venetoclax AUC Fold Increase ([2]; female OATP1B2(−/−) versus wild-type DBA, listed as venetoclax): 2 fold
- AUC(0-t) ([2]; female, CYP3A(−/−) knockout (FVB.129P2 background), 10 mg/kg, CYP3A(−/−), female, venetoclax 10 mg/kg PO, co-treatment None (control of micafungin experiment), read-out: Venetoclax AUC(0–8h)): 10600 ng·h/mL
- AUC(0-t) ([2]; female, DBA, 10 mg/kg, wild-type DBA, female, n=10, venetoclax 10 mg/kg PO, no co-treatment, read-out: Venetoclax AUC(0–8h)): 3210 ng·h/mL
- Cmax ([2]; female, DBA, 10 mg/kg, wild-type DBA, n=10, venetoclax 10 mg/kg PO, no co-treatment): 523 ng/mL
- Cmax ([2]; female, FVB, 10 mg/kg, Table S1: wild-type FVB, female, N=5, venetoclax 10 mg/kg PO, no co-treatment): 1540 ng/mL
- AUC(0-t) ([2]; female, FVB, 10 mg/kg, Table S1: wild-type FVB, female, N=5, venetoclax 10 mg/kg PO, no co-treatment, read-out: Venetoclax AUC(0-last)): 7430 ng·h/mL
- Cmax ([2]; female, FVB, 10 mg/kg, wild-type FVB, female, venetoclax 10 mg/kg PO 30 min after ketoconazole 50 mg/kg PO): 3080 ng/mL
- AUC(0-t) ([2]; female, FVB, 10 mg/kg, wild-type FVB, female, venetoclax 10 mg/kg PO 30 min after ketoconazole 50 mg/kg PO, read-out: Venetoclax AUC(0–8h)): 19700 ng·h/mL
- AUC(0-t) ([2]; female, FVB, 10 mg/kg, wild-type FVB, female, venetoclax 10 mg/kg PO, co-treatment PEG400 (vehicle), read-out: Venetoclax AUC(0–8h)): 6530 ng·h/mL
- Cmax ([2]; female, FVB, 10 mg/kg, wild-type FVB, venetoclax 10 mg/kg PO, co-treatment PEG400 (vehicle)): 1030 ng/mL
- Cmax ([2]; female, FVB.129P2 CYP3A(-/-), 10 mg/kg, Table S1: CYP3A(-/-), female, N=3, venetoclax 10 mg/kg PO, no co-treatment): 3400 ng/mL
- AUC(0-t) ([2]; female, FVB.129P2 CYP3A(-/-), 10 mg/kg, Table S1: CYP3A(-/-), female, N=3, venetoclax 10 mg/kg PO, no co-treatment, read-out: Venetoclax AUC(0-last)): 13700 ng·h/mL
- Cmax ([2]; female, FVB.129P2 CYP3A(−/−), 10 mg/kg, CYP3A(−/−), female, venetoclax 10 mg/kg PO 30 min after ketoconazole 50 mg/kg PO): 2700 ng/mL
- AUC(0-t) ([2]; female, FVB.129P2 CYP3A(−/−), 10 mg/kg, CYP3A(−/−), female, venetoclax 10 mg/kg PO 30 min after ketoconazole 50 mg/kg PO, read-out: Venetoclax AUC(0–8h)): 17300 ng·h/mL
- AUC(0-t) ([2]; female, FVB.129P2 CYP3A(−/−), 10 mg/kg, CYP3A(−/−), female, venetoclax 10 mg/kg PO, co-treatment PEG 400 (vehicle), read-out: Venetoclax AUC(0–8h)): 10600 ng·h/mL
- Cmax ([2]; female, FVB.129P2 CYP3A(−/−), 10 mg/kg, CYP3A(−/−), venetoclax 10 mg/kg PO, co-treatment None (control of micafungin experiment)): 1830 ng/mL
- Cmax ([2]; female, FVB.129P2 CYP3A(−/−), 10 mg/kg, CYP3A(−/−), venetoclax 10 mg/kg PO, co-treatment PEG 400 (vehicle)): 1570 ng/mL
- Cmax ([2]; female, FVB.129P2 CYP3A(−/−), CYP3A(−/−), female, venetoclax 10 mg/kg PO 30 min after micafungin 100 mg/kg IV): 2280 ng/mL
- AUC(0-t) ([2]; female, FVB.129P2 CYP3A(−/−), CYP3A(−/−), female, venetoclax 10 mg/kg PO 30 min after micafungin 100 mg/kg IV, read-out: Venetoclax AUC(0–8h)): 13600 ng·h/mL
- AUC(0-t) ([2]; female, OATP1B2(−/−), 10 mg/kg, OATP1B2(−/−), female, n=10, venetoclax 10 mg/kg PO, no co-treatment, read-out: Venetoclax AUC(0–8h)): 6480 ng·h/mL
- Cmax ([2]; female, OATP1B2(−/−), 10 mg/kg, n=10, venetoclax 10 mg/kg PO, no co-treatment): 1070 ng/mL
- Venetoclax AUC Fold Increase ([2]; male OATP1B2(-/-) versus male wild-type DBA (Figure S3, Table S1)): 1.7 fold
- Cmax ([2]; male, DBA, 10 mg/kg, Table S1: wild-type DBA, male, venetoclax 10 mg/kg PO, no co-treatment): 958 ng/mL
- AUC(0-t) ([2]; male, DBA, 10 mg/kg, Table S1: wild-type DBA, male, venetoclax 10 mg/kg PO, no co-treatment, read-out: Venetoclax AUC(0-last)): 5270 ng·h/mL
- Cmax ([2]; male, OATP1B2(-/-), 10 mg/kg, Table S1: OATP1B2(-/-), male, venetoclax 10 mg/kg PO, no co-treatment): 1610 ng/mL
- AUC(0-t) ([2]; male, OATP1B2(-/-), 10 mg/kg, Table S1: OATP1B2(-/-), male, venetoclax 10 mg/kg PO, no co-treatment, read-out: Venetoclax AUC(0-last)): 9200 ng·h/mL
- Venetoclax AUC Fold Increase ([2]; untreated CYP3A(-/-) versus untreated wild-type FVB, female (Figure S2, Table S1)): 1.8 fold
- Venetoclax AUC Fold Increase ([2]; vehicle-treated CYP3A(−/−) versus vehicle-treated wild-type FVB): 1.6 (versus vehicle-treated wild-type FVB) fold
- Venetoclax AUC Fold Increase ([2]; vehicle-treated CYP3A(−/−) versus vehicle-treated wild-type FVB, listed as venetoclax): 1.6 fold
- Venetoclax AUC Fold Increase ([2]; wild-type FVB + ketoconazole 50 mg/kg versus vehicle-treated wild-type FVB): 3.0 (versus vehicle-treated wild-type FVB) fold
- Venetoclax AUC Fold Increase ([2]; wild-type FVB + ketoconazole 50 mg/kg versus vehicle-treated wild-type FVB, listed as venetoclax): 3 fold
- Uptake in the intracellular fraction with overexpression of OATP1B1 versus vector ([3]; 0.2 µM EβG or 1 µM venetoclax, 15 min): significant increases
- Detectable compound associated with the membrane fraction ([3]; after correction for the intracellular fraction): > 96%
- Venetoclax remaining unbound (membrane-binding experiment) ([3]; in vitro, cells): < 3%
- Radioactivity in the membrane fraction relative to the probe substrate EβG ([3]; membrane fraction, 1 µM venetoclax vs 0.2 µM EβG): > 500 fold
- Detected total radioactivity relative to the probe substrate EβG ([3]; whole cell lysate, cells expressing OATP1B1 or vector, 15 min): > 10 fold
